Measurements published in ChEMBL document CHEMBL1649554, “Specific therapeutic schemes of omeprazole affect the orientation of Helicobacter pylori” (Antimicrob Agents Chemother, 2009).
Calls of active or inactive are those of the source. The rule behind the calls is not given here.

Legend:
Helicobacter pylori [1] = experiment: Antibacterial activity against Helicobacter pylori SS1 infected in Mongolian gerbils assessed as bacterial orientation in 0 to 15 um above the Juxtamucosal layer at 35 ug/ml administered as single dose in 8 hrs dosing interval; assay type: functional, organism-based
Helicobacter pylori [2] = experiment: (§1) Antibacterial activity against Helicobacter pylori SS1 infected in Mongolian gerbils assessed as bacterial disorientation in central layer at 0.25 mg, ip administered as two doses of solvent measured after 90 mins post last dose (reference value: 4560+/-400 bacteria per nl of mucus); assay type: functional, organism-based
Helicobacter pylori [3] = experiment: Antibacterial activity against Helicobacter pylori SS1 infected in Mongolian gerbils assessed as bacterial disorientation in 0 to 15 um above the Juxtamucosal layer at 0.25 mg, ip administered as two doses in 24 hrs dosing interval measured after 90 mins post last dose; assay type: functional, organism-based
Helicobacter pylori [4] = experiment: (§2) Antibacterial activity against Helicobacter pylori SS1 infected in Mongolian gerbils assessed as bacterial disorientation in 15 to 25 um above the Juxtamucosal layer at 0.25 mg, ip administered as two doses in 24 hrs dosing interval measured after 90 mins post last dose; assay type: functional, organism-based
Helicobacter pylori [5] = experiment: Antibacterial activity against Helicobacter pylori SS1 infected in Mongolian gerbils assessed as bacterial orientation in luminal mucus layer at 35 ug/ml administered as single dose in 8 hrs dosing interval; assay type: functional, organism-based
Helicobacter pylori [6] = experiment: (§3) Antibacterial activity against Helicobacter pylori SS1 infected in Mongolian gerbils assessed as bacterial density in mucus in luminal mucus layer at 0.25 mg, ip followed by second dose administered as solvent in 24 hrs dosing interval measured after 90 mins post last dose (reference value: 60+/-50 bacteria per nl of mucus); assay type: functional
Helicobacter pylori [7] = experiment: Antibacterial activity against Helicobacter pylori SS1 infected in Mongolian gerbils assessed as bacterial orientation in central layer at 35 ug/ml administered as single dose in 8 hrs dosing interval; assay type: functional, organism-based
Helicobacter pylori [8] = experiment: Antibacterial activity against Helicobacter pylori SS1 infected in Mongolian gerbils assessed as bacterial disorientation in luminal mucus layer at 0.25 mg, ip followed by second dose administered as solvent in 24 hrs dosing interval measured after 90 mins post last dose; assay type: functional, organism-based
Helicobacter pylori [9] = experiment: as §1, with “density in mucus” for “disorientation”, “central mucus” for “central”, “in 8 hrs dosing interval” for “of solvent”, “90+/-60” for “4560+/-400”; assay type: functional
Helicobacter pylori [10] = experiment: Antibacterial activity against Helicobacter pylori SS1 infected in Mongolian gerbils assessed as bacterial disorientation in central mucus layer at 0.25 mg, ip followed by second dose administered as solvent in 24 hrs dosing interval measured after 90 mins post last dose; assay type: functional, organism-based
Helicobacter pylori [11] = experiment: as §2, with “density in mucus” for “disorientation”, “doses of solvent” for “doses”, “dose (reference value: 2280+/-430 bacteria per nl of mucus)” for “dose”; assay type: functional
Helicobacter pylori [12] = experiment: Antibacterial activity against Helicobacter pylori SS1 infected in Mongolian gerbils assessed as bacterial disorientation in luminal mucus layer at 20 uM, ip administered as single dose through dialysis measured after 90 mins post last dose; assay type: functional, organism-based
Helicobacter pylori [13] = experiment: Antibacterial activity against Helicobacter pylori SS1 infected in Mongolian gerbils assessed as bacterial density in mucus in central mucus layer at 20 uM, ip administered as single dose through dialysis measured after 90 mins post last dose (reference value: 90+/-60 bacteria per nl of mucus); assay type: functional
Helicobacter pylori [14] = experiment: Antibacterial activity against Helicobacter pylori SS1 infected in Mongolian gerbils assessed as decrease in bacterial density in mucus in 0 to 15 um above the Juxtamucosal layer at 0.25 mg, ip administered as single dose for 5 days measured after 90 mins post last dose; assay type: functional; design: scale not given: the % may be the effect or the level left
Helicobacter pylori [15] = experiment: as §1, with “15 to 25 um above the Juxtamucosal” for “central”; assay type: functional, organism-based
Helicobacter pylori [16] = experiment: as §3, with “15 to 25 um above the Juxtamucosal” for “luminal mucus”, “2280+/-430” for “60+/-50”; assay type: functional
Helicobacter pylori [17] = experiment: Antibacterial activity against Helicobacter pylori SS1 infected in Mongolian gerbils assessed as bacterial orientation in 0 to 15 um above the Juxtamucosal layer at 0.25 mg, ip administered as two subsequent doses in 8 hrs dosing interval; assay type: functional, organism-based
Helicobacter pylori [18] = experiment: as §1, with “0 to 15 um above the Juxtamucosal” for “central”; assay type: functional, organism-based
Helicobacter pylori [19] = experiment: Antibacterial activity against Helicobacter pylori SS1 infected in Mongolian gerbils assessed as bacterial density in mucus in central mucus layer at 100 uM, ip administered as single dose through dialysis measured after 90 mins post last dose; assay type: functional
Helicobacter pylori [20] = experiment: Antibacterial activity against Helicobacter pylori SS1 infected in Mongolian gerbils assessed as bacterial density in mucus in luminal mucus layer at 20 uM, ip administered as single dose through dialysis measured after 90 mins post last dose (reference value: 60+/-50 bacteria per nl of mucus); assay type: functional
Helicobacter pylori [21] = experiment: Antibacterial activity against Helicobacter pylori SS1 infected in Mongolian gerbils assessed as bacterial disorientation in luminal mucus layer at 0.25 mg, ip administered as two doses in 8 hrs dosing interval measured after 90 mins post last dose; assay type: functional, organism-based
Helicobacter pylori [22] = experiment: (§4) Antibacterial activity against Helicobacter pylori SS1 infected in Mongolian gerbils assessed as bacterial disorientation in 0 to 15 um above the Juxtamucosal layer at 0.25 mg, ip administered as two doses in 8 hrs dosing interval measured after 90 mins post last dose; assay type: functional, organism-based
Helicobacter pylori [23] = experiment: Antibacterial activity against Helicobacter pylori SS1 infected in Mongolian gerbils assessed as bacterial disorientation in central mucus layer at 0.25 mg, ip administered as two doses in 8 hrs dosing interval measured after 90 mins post last dose; assay type: functional, organism-based
Helicobacter pylori [24] = experiment: as §4, with “as bacterial density in mucus in 0” for “as bacterial disorientation in 0”, “last dose (reference value: 4560+/-400 bacteria per nl of mucus)” for “last dose”; assay type: functional
Helicobacter pylori [25] = experiment: Antibacterial activity against Helicobacter pylori SS1 infected in Mongolian gerbils assessed as bacterial density in mucus in luminal mucus layer at 100 uM, ip administered as single dose through dialysis measured after 90 mins post last dose; assay type: functional
Helicobacter pylori [26] = experiment: Antibacterial activity against Helicobacter pylori SS1 infected in Mongolian gerbils assessed as bacterial disorientation in central mucus layer at 20 uM, ip administered as single dose through dialysis measured after 90 mins post last dose; assay type: functional, organism-based
[27] = Cmax in Mongolian gerbils plasma at 0.5 mg, ip; assay type: ADME, organism-based, Meriones unguiculatus; design: dose 0.5 mg, route intraperitoneal; details: gerbil
Helicobacter pylori [28] = experiment: Antibacterial activity against Helicobacter pylori SS1 infected in Mongolian gerbils assessed as bacterial disorientation in 15 to 25 um above the Juxtamucosal layer at 0.25 mg, ip followed by second dose administered as solvent in 24 hrs dosing interval measured after 90 mins post last dose; assay type: functional, organism-based

Question: For `COc1ccc2[nH]c([S+]([O-])Cc3ncc(C)c(OC)c3C)nc2c1` (stereo not drawn) [OMEPRAZOLE], which Activity (Helicobacter pylori [1]) is on record?
Answer: inactive

Question: What about the Activity (Helicobacter pylori [2]) of the same compound?
Answer: inactive

Question: What about the Activity (Helicobacter pylori [3]) of the same compound?
Answer: Active

Question: And the Activity (Helicobacter pylori [4])?
Answer: Active

Question: And the Activity (Helicobacter pylori [5])?
Answer: inactive

Question: What about the Activity (Helicobacter pylori [6]) of the same compound?
Answer: 50 nL⁻¹

Question: And the Activity (Helicobacter pylori [7])?
Answer: inactive

Question: What about the Activity (Helicobacter pylori [8]) of the same compound?
Answer: inactive

Question: What about the Activity (Helicobacter pylori [9]) of the same compound?
Answer: 30 nL⁻¹

Question: What about the Activity (Helicobacter pylori [10]) of the same compound?
Answer: inactive

Question: And the Activity (Helicobacter pylori [11])?
Answer: 2260 nL⁻¹

Question: And the Activity (Helicobacter pylori [12])?
Answer: inactive

Question: And the Activity (Helicobacter pylori [13])?
Answer: 70 nL⁻¹

Question: What about the Activity (Helicobacter pylori [14]) of the same compound?
Answer: 5%

Question: And the Activity (Helicobacter pylori [15])?
Answer: inactive

Question: What about the Activity (Helicobacter pylori [16]) of the same compound?
Answer: 2030 nL⁻¹

Question: What about the Activity (Helicobacter pylori [17]) of the same compound?
Answer: inactive

Question: And the Activity (Helicobacter pylori [18])?
Answer: Active

Question: And the Activity (Helicobacter pylori [19])?
Answer: 60 nL⁻¹

Question: What about the Activity (Helicobacter pylori [20]) of the same compound?
Answer: 50 nL⁻¹

Question: And the Activity (Helicobacter pylori [21])?
Answer: inactive

Question: What about the Activity (Helicobacter pylori [22]) of the same compound?
Answer: Active

Question: What about the Activity (Helicobacter pylori [23]) of the same compound?
Answer: inactive

Question: And the Activity (Helicobacter pylori [24])?
Answer: 4170 nL⁻¹

Question: What about the Activity (Helicobacter pylori [25]) of the same compound?
Answer: 60 nL⁻¹

Question: And the Activity (Helicobacter pylori [26])?
Answer: inactive

Question: And the Cmax [27]?
Answer: 20 µM

Question: And the Activity (Helicobacter pylori [28])?
Answer: inactive
